Assays:
[1] = set-up: method as in PMID 21204634; conditions: cited from earlier work
P-glycoprotein (P-gp) = system: P-glycoprotein (P-gp); set-up: method as in ref 13, 21, 22 = [13]; 13. Boehringer Ingelheim (2017) OFEV® (nintedanib) capsules, for oral use; Prescribing information, revised: 08/2017. http://docs.boehringer-ingelheim.com/Prescribing%20Information/PIs/Ofev/ofev.pdf . || [21]; 21. Boehringer Ingelheim (2013) Relative bioavailability of nintedanib given alone and in combination with ketoconazole at steady state in healthy male volunteers (an open-label, randomised, two-way c || [22]; 22. Boehringer Ingelheim (2013) Relative bioavailability of a single oral dose of nintedanib given alone and in combination with multiple oral doses of rifampicin in healthy male volunteers (an open-l); conditions: cited from earlier work
clinical = conditions: human, in vivo
Experimental: An overview of these studies is provided in Online Resource Table S1. […] Treatment continued until disease progression or intolerable toxicity. […] Treatment cycles were continued until disease progression or intolerable toxicity. […] In all four trials, dose reductions and interruptions were allowed to manage adverse events. All studies were conducted in accordance with the Declaration of Helsinki and with approval of the local ethics committees. Written informed consent was obtained from all patients before study entry. Blood sampling schema for measurement of nintedanib plasma concentrations varied. For all trials, at least two pre-dose and two post-dose blood samples were scheduled during treatment (see Online Resource Table S1). In addition, more extensive sampling was performed in the two Phase II trials. Nintedanib and BIBF 1202 plasma concentrations were analyzed by validated liquid chromatography-mass spectrometry (HPLC-MS/MS) methods. […] The population pharmacokinetic analysis was performed using non-linear mixed-effects modeling techniques (NONMEM, version VI 2.0, ICON Development Solutions, Ellicott City, Maryland, USA). The first-order conditional estimation algorithm with interaction was used. Data processing, diagnostic plots, and calculation of descriptive statistics were performed using R version 2.12.1 (http://www.rproject.org) and SAS version 9.2 (SAS Institute Inc, Cary, NC, USA). Bootstrap analysis was performed using Perl-speaks-NONMEM, version 3.5.3 [24, 25]. A sequential approach was used for population pharmacokinetic model development. […] Inter-individual variability (IIV, η) and inter-occasion variability (IOV, κ) were modeled using exponential random effect models. For testing IOV, each visit was defined as one occasion. […] Model selection was guided by change in objective function values (OFV), identifiability of parameters and precision of parameter estimates, correlation between the estimates of fixed-effect parameters, numerical stability, ability to obtain a successful COVARIANCE step, and visual inspection of basic goodness-of-fit plots. The effects of intrinsic patient factors (e.g., gender, age, body weight, ethnicity, laboratory values, and NSCLC histology) and extrinsic factors (e.g., smoking history and alcohol consumption) on pharmacokinetic parameters of nintedanib were evaluated by applying a stepwise forward inclusion/backward elimination approach. Combinations of covariates and model parameters to be tested were pre-specified based on prior knowledge, physiological plausibility, or general clinical interest (see Online Resource Table S2). Potential effects of patient population (NSCLC versus IPF) or treatment regimen (monotherapy versus combination therapy with docetaxel or pemetrexed) could not be distinguished from trials effects, and were, therefore, not re-evaluated during covariate analysis. To assess the effect of hepatic impairment on apparent total plasma clearance (CL/F) and relative bioavailability (F1), alanine transaminase (ALT), aspartate transaminase (AST), and total bilirubin (BIL) were tested individually and in combination using an adapted liver dysfunction group (LDF) composite developed for organ dysfunction studies by the Organ Dysfunction Working Group of the National Cancer Institute. In this classification, hepatic dysfunction is classified as mild (subdivided into two subgroups), moderate, or severe according to ALT, AST, and BIL levels relative to the upper limit of normal (ULN) (see Table 1). This categorization was preferred over the classical Child-Pugh classification (based on assessments of BIL, albumin, prothrombin time, encephalopathy, and ascites) commonly used to assess surgical risk in cirrhotic patients, as it has potential disadvantages for use in oncology patients. Creatinine clearance (CLCR) estimated by the Cockcroft-Gault equation [31] was used as surrogate for renal function. […]

## COC(=O)c1ccc2c(c1)NC(=O)/C2=C(\Nc1ccc(N(C)C(=O)CN2CCN(C)CC2)cc1)c1ccccc1 [nintedanib]
[1]
  eliminated in urine: Less than 1%
  excreted in the feces: about 94 % of the dose
P-glycoprotein (P-gp)
  substrate of P-glycoprotein (P-gp): substrate
clinical
  ALAG: 0.470 (–) h
  CL/F (θCL): 875 (–) L/h
  F1 higher in NSCLC phase II and LUME-Lung 2 trials than in LUME-Lung 1 and IPF phase II trials: 30%
  V2/F (θV2): 617 (–) L
  V2 when applying non-flip-flop kinetics in the final model: 10,700 L
  Vd/F: 465 L
  absorption-rate constant, Phase II trials versus Phase III trials: 2 fold
  change in exposure by any individual covariate at extreme values relative to a typical patient: ≤ 33%
  covariate effect on F1, θAge: 0.00942 (–)
  difference in nintedanib pharmacokinetics for Black patients, alcohol consumption or UGT1A1 polymorphism status: no substantial difference
  dose linearity: No major deviation from dose linearity
  impact of gender, patient population, NSCLC histology, therapy regimen, ECOG status, liver metastases, mild or moderate renal impairment, LDH on nintedanib pharmacokinetics: no statistically significant impact
  increase of F1, mild 1 liver dysfunction category: 8%
  increase of F1, mild 2 liver dysfunction category: 13%
  ka (θka): 0.0391 (–) h^-1
  ka (θka), first-order absorption-rate constant: 0.0376 (7.77) h^−1
  ka higher in phase II NSCLC and IPF trials than in the two NSCLC Phase III trials: 120%
  ka when applying non-flip-flop kinetics in the final model: 1.64 h⁻¹
  ka, absorption rate of a typical patient: 0.0827 h⁻¹
  lag time: 25 min
  percentage change in AUCτ,ss: Chinese/Taiwanese/Indian: ↑33%
  percentage change in AUCτ,ss: Korean: ↓22%
  percentage change in AUCτ,ss: age 45 years (5th percentile): ↓16%
  percentage change in AUCτ,ss: age 76 years (95th percentile): ↑13%
  percentage change in AUCτ,ss: body weight 50 kg (5th percentile): ↑25%
  percentage change in AUCτ,ss: body weight 100 kg (95th percentile): ↓19%
  percentage change in AUCτ,ss: current smoker: Current smoker: ↓21%
  ratios of AUCτ,ss for each factor other than ethnic origin: 80–125%
clinical; absorption half-life
  half-life: 8.38 h
clinical; elimination half-life (population mean)
  half-life: 0.36 h
